PubChem BioAssay (NCI)
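Five concentrations, 48 hours, 96-well plates. Here, GI50 denotes the concentration required for 50% inhibition of growth. TGI is the concentration that stops growth completely.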

Key:
Assay in all cases: NCI-60 cell line screen, 48 h
SK-OV-3 ovarian = system: SK-OV-3 ovarian
K-562 leukemia = system: K-562 leukemia
MDA-MB-435 = system: MDA-MB-435
NCI-H522 lung = system: NCI-H522 lung
HT29 colon = system: HT29 colon
OVCAR-4 ovarian = system: OVCAR-4 ovarian
SNB-19 CNS = system: SNB-19 CNS
EKVX NSCLC = system: EKVX NSCLC
SR leukemia = system: SR leukemia
OVCAR-3 ovarian = system: OVCAR-3 ovarian
786-0 renal = system: 786-0 renal
MDA-MB-231 breast = system: MDA-MB-231 breast
SK-MEL-28 melanoma = system: SK-MEL-28 melanoma
HCT-116 colon = system: HCT-116 colon
NCI-H23 lung = system: NCI-H23 lung
UACC-62 melanoma = system: UACC-62 melanoma
UACC-257 melanoma = system: UACC-257 melanoma
M14 melanoma = system: M14 melanoma
ACHN renal = system: ACHN renal
COLO 205 colon = system: COLO 205 colon
NCI/ADR-RES ovarian = system: NCI/ADR-RES ovarian
HS 578T breast = system: HS 578T breast
HL-60(TB) leukemia = system: HL-60(TB) leukemia
DU-145 prostate = system: DU-145 prostate
SF-268 CNS = system: SF-268 CNS
HCT-15 colon = system: HCT-15 colon
SK-MEL-5 melanoma = system: SK-MEL-5 melanoma
SF-295 CNS = system: SF-295 CNS
LOX IMVI melanoma = system: LOX IMVI melanoma
MCF7 breast = system: MCF7 breast
HCC-2998 colon = system: HCC-2998 colon
KM12 colon = system: KM12 colon
MOLT-4 leukemia = system: MOLT-4 leukemia
IGROV1 ovarian = system: IGROV1 ovarian
CCRF-CEM leukemia = system: CCRF-CEM leukemia
OVCAR-5 ovarian = system: OVCAR-5 ovarian
U251 CNS = system: U251 CNS
T-47D breast = system: T-47D breast
UO-31 renal = system: UO-31 renal
RXF 393 renal = system: RXF 393 renal
SW-620 colon = system: SW-620 colon
SNB-75 CNS = system: SNB-75 CNS
SF-539 CNS = system: SF-539 CNS
HOP-62 NSCLC = system: HOP-62 NSCLC
CAKI-1 renal = system: CAKI-1 renal
NCI-H226 lung = system: NCI-H226 lung
NCI-H460 lung = system: NCI-H460 lung
OVCAR-8 ovarian = system: OVCAR-8 ovarian
MALME-3M melanoma = system: MALME-3M melanoma
TK-10 renal = system: TK-10 renal
RPMI-8226 leukemia = system: RPMI-8226 leukemia
A498 renal = system: A498 renal
A549 NSCLC = system: A549 NSCLC

Q: For `COc1ccc(Cl)cc1Nc1nc(C(F)(F)F)ccc1C(=O)N/N=C/c1ccc([N+](=O)[O-])cc1`, which GI50 (SK-OV-3 ovarian) is on record?
A: Its GI50 is 1730 nM.

Q: And the TGI (SK-OV-3 ovarian)?
A: Its TGI is 5.77 µM.

Q: What about the GI50 (K-562 leukemia) of the same molecule?
A: The GI50 was 2950 nM.

Q: What about the TGI (K-562 leukemia) of the same molecule?
A: The TGI was 12.6 µM.

Q: And the GI50 (MDA-MB-435)?
A: Its GI50 is 2660 nM.

Q: And the TGI (MDA-MB-435)?
A: Its TGI is 13.1 µM.

Q: And the GI50 (NCI-H522 lung)?
A: The GI50 was 1620 nM.

Q: And the TGI (NCI-H522 lung)?
A: The TGI was 4.77 µM.

Q: What about the GI50 (HT29 colon) of the same molecule?
A: Its GI50 is 2200 nM.

Q: And the TGI (HT29 colon)?
A: Its TGI is 5.49 µM.

Q: And the GI50 (OVCAR-4 ovarian)?
A: The GI50 was 979 nM.

Q: What about the TGI (OVCAR-4 ovarian) of the same molecule?
A: The TGI was 7.68 µM.

Q: What about the GI50 (SNB-19 CNS) of the same molecule?
A: Its GI50 is 2330 nM.

Q: And the TGI (SNB-19 CNS)?
A: The TGI was 13 µM.

Q: What about the GI50 (EKVX NSCLC) of the same molecule?
A: Its GI50 is 2010 nM.

Q: And the TGI (EKVX NSCLC)?
A: The TGI was 9.27 µM.

Q: What about the GI50 (SR leukemia) of the same molecule?
A: The GI50 was 1760 nM.

Q: What about the TGI (SR leukemia) of the same molecule?
A: Its TGI is 4.95 µM.

Q: And the GI50 (OVCAR-3 ovarian)?
A: The GI50 was 1250 nM.

Q: And the TGI (OVCAR-3 ovarian)?
A: The TGI was 3.78 µM.

Q: What about the GI50 (786-0 renal) of the same molecule?
A: The GI50 was 1920 nM.

Q: And the TGI (786-0 renal)?
A: Its TGI is 9.27 µM.

Q: What about the GI50 (MDA-MB-231 breast) of the same molecule?
A: Its GI50 is 1490 nM.

Q: And the TGI (MDA-MB-231 breast)?
A: The TGI was 4.38 µM.

Q: What about the GI50 (SK-MEL-28 melanoma) of the same molecule?
A: Its GI50 is 2790 nM.

Q: And the TGI (SK-MEL-28 melanoma)?
A: Its TGI is > 100 µM.

Q: And the GI50 (HCT-116 colon)?
A: The GI50 was 2450 nM.

Q: And the TGI (HCT-116 colon)?
A: The TGI was 14.7 µM.

Q: What about the GI50 (NCI-H23 lung) of the same molecule?
A: Its GI50 is 2050 nM.

Q: And the TGI (NCI-H23 lung)?
A: The TGI was 7.52 µM.

Q: And the GI50 (UACC-62 melanoma)?
A: Its GI50 is 2170 nM.

Q: What about the TGI (UACC-62 melanoma) of the same molecule?
A: The TGI was 6.77 µM.

Q: What about the GI50 (UACC-257 melanoma) of the same molecule?
A: The GI50 was 2920 nM.

Q: And the TGI (UACC-257 melanoma)?
A: The TGI was 8.7 µM.

Q: And the GI50 (M14 melanoma)?
A: The GI50 was 1600 nM.

Q: And the TGI (M14 melanoma)?
A: The TGI was 5.41 µM.

Q: What about the GI50 (ACHN renal) of the same molecule?
A: Its GI50 is 2180 nM.

Q: And the TGI (ACHN renal)?
A: Its TGI is 5.42 µM.

Q: What about the GI50 (COLO 205 colon) of the same molecule?
A: Its GI50 is 1650 nM.

Q: What about the TGI (COLO 205 colon) of the same molecule?
A: The TGI was 3.58 µM.

Q: What about the GI50 (NCI/ADR-RES ovarian) of the same molecule?
A: Its GI50 is 2250 nM.

Q: And the TGI (NCI/ADR-RES ovarian)?
A: The TGI was 6.7 µM.

Q: What about the GI50 (HS 578T breast) of the same molecule?
A: Its GI50 is 2570 nM.

Q: What about the TGI (HS 578T breast) of the same molecule?
A: Its TGI is 62.9 µM.

Q: What about the GI50 (HL-60(TB) leukemia) of the same molecule?
A: The GI50 was 2140 nM.

Q: What about the TGI (HL-60(TB) leukemia) of the same molecule?
A: The TGI was 7.18 µM.

Q: And the GI50 (DU-145 prostate)?
A: The GI50 was 1270 nM.

Q: And the TGI (DU-145 prostate)?
A: The TGI was 3.21 µM.

Q: What about the GI50 (SF-268 CNS) of the same molecule?
A: The GI50 was 1690 nM.

Q: What about the TGI (SF-268 CNS) of the same molecule?
A: The TGI was 5.8 µM.

Q: And the GI50 (HCT-15 colon)?
A: The GI50 was 1290 nM.

Q: What about the TGI (HCT-15 colon) of the same molecule?
A: Its TGI is 5.11 µM.

Q: What about the GI50 (SK-MEL-5 melanoma) of the same molecule?
A: The GI50 was 1980 nM.

Q: And the TGI (SK-MEL-5 melanoma)?
A: Its TGI is 4.86 µM.

Q: What about the GI50 (SF-295 CNS) of the same molecule?
A: Its GI50 is 1170 nM.

Q: What about the TGI (SF-295 CNS) of the same molecule?
A: Its TGI is 3.79 µM.

Q: And the GI50 (LOX IMVI melanoma)?
A: Its GI50 is 1390 nM.

Q: What about the TGI (LOX IMVI melanoma) of the same molecule?
A: The TGI was 4.79 µM.

Q: And the GI50 (MCF7 breast)?
A: Its GI50 is 2200 nM.

Q: And the TGI (MCF7 breast)?
A: Its TGI is 7.85 µM.

Q: And the GI50 (HCC-2998 colon)?
A: The GI50 was 1290 nM.

Q: And the TGI (HCC-2998 colon)?
A: The TGI was 7.27 µM.

Q: What about the GI50 (KM12 colon) of the same molecule?
A: The GI50 was 1790 nM.

Q: And the TGI (KM12 colon)?
A: The TGI was 4.98 µM.

Q: What about the GI50 (MOLT-4 leukemia) of the same molecule?
A: Its GI50 is 3.82 µM.

Q: What about the TGI (MOLT-4 leukemia) of the same molecule?
A: Its TGI is 13.2 µM.

Q: And the GI50 (IGROV1 ovarian)?
A: Its GI50 is 2560 nM.

Q: And the TGI (IGROV1 ovarian)?
A: The TGI was 6.49 µM.

Q: And the GI50 (CCRF-CEM leukemia)?
A: Its GI50 is 30.8 µM.

Q: And the TGI (CCRF-CEM leukemia)?
A: Its TGI is > 100 µM.

Q: And the GI50 (OVCAR-5 ovarian)?
A: The GI50 was 1730 nM.

Q: What about the TGI (OVCAR-5 ovarian) of the same molecule?
A: The TGI was 7.59 µM.

Q: What about the GI50 (U251 CNS) of the same molecule?
A: The GI50 was 2060 nM.

Q: And the TGI (U251 CNS)?
A: Its TGI is 6.63 µM.

Q: And the GI50 (T-47D breast)?
A: The GI50 was 1810 nM.

Q: And the TGI (T-47D breast)?
A: Its TGI is 7.75 µM.

Q: And the GI50 (UO-31 renal)?
A: The GI50 was 1770 nM.

Q: And the TGI (UO-31 renal)?
A: The TGI was 5.97 µM.

Q: What about the GI50 (RXF 393 renal) of the same molecule?
A: Its GI50 is 1280 nM.

Q: And the TGI (RXF 393 renal)?
A: Its TGI is 6.04 µM.

Q: And the GI50 (SW-620 colon)?
A: Its GI50 is 2770 nM.

Q: And the TGI (SW-620 colon)?
A: The TGI was > 100 µM.

Q: And the GI50 (SNB-75 CNS)?
A: Its GI50 is 2210 nM.

Q: What about the TGI (SNB-75 CNS) of the same molecule?
A: Its TGI is 12.9 µM.

Q: And the GI50 (SF-539 CNS)?
A: Its GI50 is 3.05 µM.

Q: What about the TGI (SF-539 CNS) of the same molecule?
A: Its TGI is 19.1 µM.

Q: What about the GI50 (HOP-62 NSCLC) of the same molecule?
A: Its GI50 is 2350 nM.

Q: And the TGI (HOP-62 NSCLC)?
A: The TGI was 11.4 µM.

Q: And the GI50 (CAKI-1 renal)?
A: Its GI50 is 1460 nM.

Q: And the TGI (CAKI-1 renal)?
A: Its TGI is 4.74 µM.

Q: And the GI50 (NCI-H226 lung)?
A: Its GI50 is 2010 nM.

Q: What about the TGI (NCI-H226 lung) of the same molecule?
A: The TGI was 8.65 µM.

Q: What about the GI50 (NCI-H460 lung) of the same molecule?
A: Its GI50 is 1900 nM.

Q: What about the TGI (NCI-H460 lung) of the same molecule?
A: The TGI was 4.86 µM.

Q: And the GI50 (OVCAR-8 ovarian)?
A: The GI50 was 2770 nM.

Q: And the TGI (OVCAR-8 ovarian)?
A: The TGI was 62.2 µM.

Q: And the GI50 (MALME-3M melanoma)?
A: The GI50 was 2300 nM.

Q: What about the TGI (MALME-3M melanoma) of the same molecule?
A: The TGI was 5.59 µM.

Q: And the GI50 (TK-10 renal)?
A: Its GI50 is 1220 nM.

Q: And the TGI (TK-10 renal)?
A: Its TGI is 5.88 µM.

Q: What about the GI50 (RPMI-8226 leukemia) of the same molecule?
A: Its GI50 is 1600 nM.

Q: And the TGI (RPMI-8226 leukemia)?
A: The TGI was 6.55 µM.

Q: And the GI50 (A498 renal)?
A: Its GI50 is 1860 nM.

Q: And the TGI (A498 renal)?
A: The TGI was 6.45 µM.

Q: And the GI50 (A549 NSCLC)?
A: Its GI50 is 3.41 µM.

Q: And the TGI (A549 NSCLC)?
A: Its TGI is 52.7 µM.
